# Like-named read-outs stand apart in the source and are kept apart here.
# Tests used:
# HepG2 cells [1] = details: cited from earlier work
# HepG2 cells [2] = assay: Intracellular ATP content (cell viability) assay; assay type: cell-based, human; details: Homo sapiens, HepG2, 40 h
# [3] = tested on: p53 (p53-bla HCT-116 cells); assay: p53 β-lactamase reporter gene assay; assay type: cell-based, human; details: 16 h incubation; mean±SD of three experiments
# rat primary hepatocytes [4] = assay: MMP assay in rat primary hepatocytes; details: Rattus norvegicus, Hepatocyte
# [5] = tested on: Nrf2/ARE (ARE-bla HepG2 cells); assay: ARE β-lactamase reporter gene assay; assay type: cell-based, human; details: Homo sapiens, HepG2; 16 h incubation; mean±SD of three experiments; read-out: ARE (HepG2) EC50
# [6] = tested on: Caenorhabditis elegans strain PE255; assay: In vivo C. elegans ATP status assay
# [7] = tested on: Caenorhabditis elegans (Bristol N2); assay: C. elegans larval development and growth assay; details: 0.5–100μM
# HepG2 cells [8] = assay: cells; details: Homo sapiens
# [9] = tested on: isolated rat liver mitochondria; assay: Oxygen consumption, Clark-type oxygen electrode; assay type: biochemical
# HepG2 cells [10] = assay: ROS-Glo hydrogen peroxide (ROS) assay; assay type: cell-based, human
# hNSC = assay: MMP assay in human neural stem cells (hNSC); assay type: cell-based; details: Homo sapiens, Neural stem cell, 1 h, read-out: hNSC IC50 (MMP)
# [11] = tested on: HeLa cells expressing YFP-Parkin; assay: Parkin translocation assay; assay type: cell-based, human
# rat primary hepatocytes [12] = tested on: rat primary hepatocytes
smiles,measurement,setting,value
"CO[C@H]1/C=C/O[C@@]2(C)Oc3c(C)c(O)c4c(O)c(c(/C=N/N5CCN(C6CCCC6)CC5)c(O)c4c3C2=O)NC(=O)/C(C)=C\C=C\[C@H](C)[C@H](O)[C@@H](C)[C@@H](O)[C@@H](C)[C@H](OC(C)=O)[C@@H]1C [Rifapentine, reference compound]",MMP assays efficacy (%) qHTS-HepG2,HepG2 cells [1],-104±16%
same,IC50,"HepG2 cells [1]; read-out: MMP assays IC50 (µM), qHTS-HepG2",1.46 ± 0.26 µM
same,IC50,"HepG2 cells [2]; read-out: ATP (HepG2, galactose) IC50",36 µM
same,IC50,"HepG2 cells [2]; read-out: ATP (HepG2, glucose) IC50",43.4 µM
same,p53 (HCT-116) EC50,[3],Inactive
same,IC50,"rat primary hepatocytes [4]; 1 h, read-out: Rat hepatocytes IC50 (MMP)",5.94 µM
same,IC50,rat primary hepatocytes [4]; read-out: MMP assays IC50 (µM) Rat Hepatocytes,0.62 ± 0.55 µM
same,EC50,[5],29.3 ± 7.09 µM
same,effect on ATP content (in words),[6]; 0.5–100μM,statistically significant decreases in ATP content
same,minimal effective concentration,"[6]; Caenorhabditis elegans, read-out: LEC LUM: lowest effect concentration for luminescence, a measure of nematode ATP content",100 µM
same,effect on larval growth (in words),[7],did not affect growth
same,IC50,"HepG2 cells [8]; HepG2, 1 h, read-out: HepG2 IC50 Galactose (MMP)",17.7 µM
same,IC50,"HepG2 cells [8]; HepG2, 1 h, read-out: HepG2 IC50 Glucose (MMP)",13.9 µM
same,IC50,"HepG2 cells [8]; HepG2, read-out: MMP assays IC50 (µM) HepG2",3.88 µM
same,Emax,"HepG2 cells [8]; HepG2, read-out: MMP assays efficacy (%) HepG2",101%
same,Potential Mechanism,[9],Inactive
same,"I-ADP, % of control (O2 consumption rate)",[9]; 4 µM,88 (48.1) % of control
same,"I-sub, % of control (O2 consumption rate)",[9]; 4 µM,98 (12.8) % of control
same,"II-ADP, % of control (O2 consumption rate)",[9]; 4 µM,94 (82.6) % of control
same,"II-sub, % of control (O2 consumption rate)",[9]; 4 µM,92 (22.7) % of control
same,"I-ADP, % of control (O2 consumption rate)",[9]; 20 µM,86 (47.1) % of control
same,"I-sub, % of control (O2 consumption rate)",[9]; 20 µM,127 (16.7) % of control
same,"II-ADP, % of control (O2 consumption rate)",[9]; 20 µM,85 (75.2) % of control
same,"II-sub, % of control (O2 consumption rate)",[9]; 20 µM,101 (24.8) % of control
same,ROS (HepG2) EC50,HepG2 cells [10],Inactive
same,IC50,hNSC,8.07 µM
same,Parkin recruitment,[11],Inactive
same,Rat hepatocytes (efficacy) (MMP),rat primary hepatocytes [12],5.94±1.48 ( −73.4±10.2 ) %

# From publication PMC6112376, “Comprehensive Analyses and Prioritization of Tox21 10K Chemicals Affecting Mitochondrial Function by in-Depth Mechanistic Studies” (Environmental Health Perspectives, 2018)
